Measurements published in PubChem BioAssay AID1963830 (Molecular Pharmacology Branch, DTP, NCI, 2024).
“And” between values parts separate entries of the source, which are not always exact repeats. Equal values may be shown once.

Test system: 922993-354-T-J3-PDC complex spheroid viability
Experiment: Anticancer human tumor 922993-354-T-J3-PDC patient-derived endometrial carcinoma cell line growth inhibition [POLQ]
Details: for viability, T/C: stronger effect = lower value
Experimental: Multicellular complex tumor spheroid response to Polymerase (POL) inhibitors (novobiocin, ART-558, RP6685) in combination with a variety of drugs and investigational agents in selected tumor cell lines
The POL inhibitors (novobiocin, ART-558, and RP6685) were evaluated both individually and in combination with standard of care and investigational anticancer small molecules within a complex spheroid model of solid tumors. . Complex spheroids include a stromal component modeled by human endothelial cells (HUVEC) and fibroblasts modeled by human mesenchymal stem cells (MSCs). The concentration ranges selected for each drug and investigational agent were based upon clinically achievable concentrations if the clinical Cmax of the agent was known.
Compounds. The drugs and investigational agents: novobiocin (NSC847541), ART-558 (NSC835418), RP-6685 (NSC848927), peposertib (NSC802822), ceralasertib (NSC780249), elimusertib (NSC800525), camonsertib (NSC841442), AZD-1390 (NSC803789), olaparib (NSC753686), talazoparib (NSC767125), rucaparib (NSC756644), sotorasib (NSC818433), MRTX-1133 (NSC836407), SN-38 (NSC673596), topotecan (NSC609699), epotoside (NSC141540), doxorubicin (NSC123127), gemcitabine (NSC613327), 5-fluorouracil (NSC19893), paclitaxel (NSC125973), vemurafenib (NSC761431), MSA-2 (NSC828583), SN-011 (NSC837082), adavosertib (NSC754352), prexasertib (NSC758257), carboplatin (NSC241240) and oxaliplatin (NSC266046), were obtained from the National Cancer Institute (NCI) Developmental Therapeutics Program Chemical Repository (21). The FDA-approved anticancer drug set is available from the Developmental Therapeutics Program at https://dtp.cancer.gov/organization/dscb/obtaining/. […] The stock solutions were prepared in dimethyl sulfoxide (DMSO, Sigma-Aldrich, St. Louis, MO, cat. D2650), except for the platinum compounds which were prepared in saline (Quality Biological, Gaithersburg, MD, cat. 114-055-101), at 800-fold the tested concentration and stored at -70 degrees C prior to their use. All drugs and investigational agents were tested over a range starting from a high concentration at or near the clinical Cmax and decreasing in half-log increments. If the clinical Cmax for an agent had not been determined, the highest concentration tested was 10 microM, except for SN-38, which was tested at a high concentration of 1 microM.
Cell Culture. All cells were maintained in an incubator at 37 degrees C and 5% CO2 with 95% humidity. The PDC lines were cultured according to standard operating procedures established by the NCI PDMR (https://pdmr.cancer.gov). Table 3 of the manuscript, lists the cell lines along with the number of the three cell types plated to form the mct-spheroids and media for tumor cell growth. After thawing, all PDC lines, except 997537-175-T-J1-PDC and 415267-285-R-J2-PDC, were cultured in Matrigel-coated flasks prepared with a working solution of 1X Ham's F-12 nutrient mix, without supplementation (Thermo Fisher Scientific, cat. 11765054), 100 U/mL penicillin-streptomycin (Thermo Fisher Scientific, cat. 15140122), and 2.5% Matrigel (Corning Inc., Corning, NY, cat. 354248) for the first three passages. The two PDC lines 997537-175-T-J1-PDC and 415267-285-R-J2-PDC were cultured on uncoated flasks. The 857933-349-R-J2-PDC line was cultured in 6C/Colon 1B media containing advanced DMEM/F-12 (Thermo Fisher Scientific, cat. 12634028), 10 mM HEPES (Thermo Fisher Scientific, cat. 15630080), 1X GlutaMAX supplement (Thermo Fisher Scientific, cat. 35050061), 0.1 mg/mL primocin (InvivoGen, San Diego, CA, cat. ant-pm-2), 10% defined fetal bovine serum, heat inactivated (HyClone Laboratories Inc., Logan, UT, cat. SH30070.03HI), 50% L-WRN conditioned media (ATCC, cat. CRL-3276), 1.25 mM N-Acetyl-L-cysteine (Sigma-Aldrich, cat. A9165), 10 mM nicotinamide (Sigma-Aldrich, cat. N0636), 1X B-27 supplement (Thermo Fisher Scientific, cat. 17504044), 1X N-2 supplement (Thermo Fisher Scientific, cat. […]

[1] = curve of first compound, second compound 0.0316 µM
[2] = curve of first compound, second compound 0.1 µM
[3] = curve of first compound, second compound 0.316 µM
[4] = curve of first compound, second compound 1 µM
[5] = curve of first compound, second compound 3.16 µM
[6] = curve of first compound, second compound 10 µM
[7] = second compound 0.0316 µM, first compound 0.0316 µM
[8] = second compound 0.0316 µM, first compound 0.1 µM
[9] = second compound 0.0316 µM, first compound 0.316 µM
[10] = second compound 0.0316 µM, first compound 1 µM
[11] = second compound 0.0316 µM, first compound 3.16 µM
[12] = second compound 0.0316 µM, first compound 10 µM
[13] = second compound 0.1 µM, first compound 0.0316 µM
[14] = second compound 0.1 µM, first compound 0.1 µM
[15] = second compound 0.1 µM, first compound 0.316 µM
[16] = second compound 0.1 µM, first compound 1 µM
[17] = second compound 0.1 µM, first compound 3.16 µM
[18] = second compound 0.1 µM, first compound 10 µM
[19] = second compound 0.316 µM, first compound 0.0316 µM
[20] = second compound 0.316 µM, first compound 0.1 µM
[21] = second compound 0.316 µM, first compound 0.316 µM
[22] = second compound 0.316 µM, first compound 1 µM
[23] = second compound 0.316 µM, first compound 3.16 µM
[24] = second compound 0.316 µM, first compound 10 µM
[25] = second compound 1 µM, first compound 0.0316 µM
[26] = second compound 1 µM, first compound 0.1 µM
[27] = second compound 1 µM, first compound 0.316 µM
[28] = second compound 1 µM, first compound 1 µM
[29] = second compound 1 µM, first compound 3.16 µM
[30] = second compound 1 µM, first compound 10 µM
[31] = second compound 3.16 µM, first compound 0.0316 µM
[32] = second compound 3.16 µM, first compound 0.1 µM
[33] = second compound 3.16 µM, first compound 0.316 µM
[34] = second compound 3.16 µM, first compound 1 µM
[35] = second compound 3.16 µM, first compound 3.16 µM
[36] = second compound 3.16 µM, first compound 10 µM
[37] = second compound 10 µM, first compound 0.0316 µM
[38] = second compound 10 µM, first compound 0.1 µM
[39] = second compound 10 µM, first compound 0.316 µM
[40] = second compound 10 µM, first compound 1 µM
[41] = second compound 10 µM, first compound 3.16 µM
[42] = second compound 10 µM, first compound 10 µM
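Further: spheroids exposed to the agents for one week.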
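Wherever viability, T/C is given: 100% = DMSO vehicle control wells.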

Structure (SMILES): CC1COCCN1c1cc(C2(O)CC3CCC(C2)O3)c2cnn(-c3ccn[nH]3)c2n1 (stereo unspecified) + Nc1ccc(C#CCN(C(=O)Cc2ncc(C(F)(F)F)cc2C(F)(F)F)c2ccc(F)cc2)nn1
- IC50 [1]: 2080 nM
- IC50 [2]: 2160 nM
- IC50 [3]: 2270 nM
- IC50 [4]: 2370 nM
- IC50 [5]: 1310 nM
- IC50 [6]: 453 nM
- viability, T/C [7]: 102%
- viability, T/C [8]: 105%
- viability, T/C [9]: 89.1%
- viability, T/C [10]: 74.9%
- viability, T/C [11]: 35.3%
- viability, T/C [12]: 21.3%
- viability, T/C [13]: 108%
- viability, T/C [14]: 107%
- viability, T/C [15]: 98.7%
- viability, T/C [16]: 76.7%
- viability, T/C [17]: 36.8%
- viability, T/C [18]: 16.2%
- viability, T/C [19]: 106%
- viability, T/C [20]: 102%
- viability, T/C [21]: 92.9%
- viability, T/C [22]: 75.8%
- viability, T/C [23]: 38.9%
- viability, T/C [24]: 20.7%
- viability, T/C [25]: 105%
- viability, T/C [26]: 94.3%
- viability, T/C [27]: 89.2%
- viability, T/C [28]: 74.7%
- viability, T/C [29]: 40.9%
- viability, T/C [30]: 14.9%
- viability, T/C [31]: 97.8%
- viability, T/C [32]: 101%
- viability, T/C [33]: 80.4%
- viability, T/C [34]: 59.3%
- viability, T/C [35]: 26%
- viability, T/C [36]: 12.2%
- viability, T/C [37]: 99.4%
- viability, T/C [38]: 90.9%
- viability, T/C [39]: 62.4%
- viability, T/C [40]: 22.9%
- viability, T/C [41]: 19.4%
- viability, T/C [42]: 10.9%

Structure (SMILES): COc1cccc2c1C(=O)c1c(O)c3c(c(O)c1C2=O)CC(O)(C(=O)CO)CC3OC1CC(N)C(O)C(C)O1 (stereo unspecified)
- viability, T/C (compound 0.0316 µM): 95.6% and 102% and 94.8%
- viability, T/C (compound 0.1 µM): 84.5% and 106% and 91.1%
- viability, T/C (compound 0.316 µM): 79.2% and 99.9% and 86.9%
- viability, T/C (compound 1 µM): 49.4% and 91.8% and 61.5%
- viability, T/C (compound 3.16 µM): 30% and 74.5% and 31.3%
- viability, T/C (compound 10 µM): 12.6% and 30.7% and 10.1%
- IC50 (curve of compound): 1120 nM and 6000 nM and 1580 nM

Structure (SMILES): COc1cc(C2c3cc4c(cc3C(OC3OC5COC(C)OC5C(O)C3O)C3COC(=O)C23)OCO4)cc(OC)c1O (stereo unspecified) + COC1C(OC(N)=O)C(O)C(Oc2ccc3c(O)c(NC(=O)c4ccc(O)c(CC=C(C)C)c4)c(=O)oc3c2C)OC1(C)C
- IC50 [1]: 5980 nM
- IC50 [2]: 7740 nM
- IC50 [3]: 8380 nM
- IC50 [4]: 7000 nM
- IC50 [5]: 7130 nM
- IC50 [6]: 7810 nM
- viability, T/C [7]: 98%
- viability, T/C [8]: 91%
- viability, T/C [9]: 100%
- viability, T/C [10]: 98.6%
- viability, T/C [11]: 74.1%
- viability, T/C [12]: 30.7%
- viability, T/C [13]: 99.7%
- viability, T/C [14]: 89.4%
- viability, T/C [15]: 93.9%
- viability, T/C [16]: 88.3%
- viability, T/C [17]: 72.9%
- viability, T/C [18]: 43.2%
- viability, T/C [19]: 107%
- viability, T/C [20]: 97.7%
- viability, T/C [21]: 106%
- viability, T/C [22]: 90%
- viability, T/C [23]: 69.6%
- viability, T/C [24]: 46.4%
- viability, T/C [25]: 96.2%
- viability, T/C [26]: 93.8%
- viability, T/C [27]: 91.9%
- viability, T/C [28]: 89.2%
- viability, T/C [29]: 72.9%
- viability, T/C [30]: 39.5%
- viability, T/C [31]: 99.7%
- viability, T/C [32]: 97.7%
- viability, T/C [33]: 89.2%
- viability, T/C [34]: 88.6%
- viability, T/C [35]: 81.8%
- viability, T/C [36]: 37.1%
- viability, T/C [37]: 72.1%
- viability, T/C [38]: 84.5%
- viability, T/C [39]: 89.4%
- viability, T/C [40]: 76.1%
- viability, T/C [41]: 85.1%
- viability, T/C [42]: 41.6%
